Test results published in patent publication US11505575B2, “Cyclic polypeptides for PCSK9 inhibition” (Merck Sharp & Dohme LLC, priority 2018, dated 2022).
*1 amine or outer side, *2 acyl side, *3 side chain or, on linkers, in order; H or OH if unused. Where a SMILES comes first, the peptide text is derived from it. Bridges are numbered along the chain shown (N, C = ends). [ ]: non-standard residue; d: D form. Trp(7-aza) = N[C@@H](Cc1c[nH]c2ncccc12)C(=O)O; mXylylene = c1cc(C[*:1])cc(C[*:2])c1; pS = N[C@@H](COP(=O)(O)O)C(=O)O; Tle = CC(C)(C)[C@H](N)C(=O)O; αMeV = CC(C)[C@](C)(N)C(=O)O; Aib = CC(C)(N)C(=O)O; Mpa = O=C(O)CCS

How the values were obtained:
Format in all cases: binding
[1] = target: human PCSK9 / human LDLR EGFa domain interaction (Homo sapiens, UniProt Q8NBP7); test: TR-FRET assay of inhibition of the PCSK9-LDLR protein-protein interaction; conditions: 20 nM biotinylated human PCSK9 + 20 nM his-tagged human LDLR EGFa domain, 2 hours room temperature
Sequence of human PCSK9 / human LDLR EGFa domain interaction (Q8NBP7 153-692): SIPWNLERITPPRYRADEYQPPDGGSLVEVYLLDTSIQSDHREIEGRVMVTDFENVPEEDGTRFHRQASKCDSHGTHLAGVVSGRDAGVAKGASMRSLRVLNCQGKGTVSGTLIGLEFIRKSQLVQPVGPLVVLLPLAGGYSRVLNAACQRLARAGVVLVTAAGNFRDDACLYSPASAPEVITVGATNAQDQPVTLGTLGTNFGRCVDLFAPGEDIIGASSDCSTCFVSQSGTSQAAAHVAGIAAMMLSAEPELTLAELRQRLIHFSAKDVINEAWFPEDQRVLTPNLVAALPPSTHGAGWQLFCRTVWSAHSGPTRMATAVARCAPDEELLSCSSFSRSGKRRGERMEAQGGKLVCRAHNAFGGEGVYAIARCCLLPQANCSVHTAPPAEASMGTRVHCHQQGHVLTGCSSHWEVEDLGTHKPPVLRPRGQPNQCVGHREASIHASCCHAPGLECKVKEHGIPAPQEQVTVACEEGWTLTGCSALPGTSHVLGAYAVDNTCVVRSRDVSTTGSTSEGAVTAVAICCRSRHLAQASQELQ
Sequence of human PCSK9 / human LDLR EGFa domain interaction (Q8NBP7 31-152 partner limits assumed): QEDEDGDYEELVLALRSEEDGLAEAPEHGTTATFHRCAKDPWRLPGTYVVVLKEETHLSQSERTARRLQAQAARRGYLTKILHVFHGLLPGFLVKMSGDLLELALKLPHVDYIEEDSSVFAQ
How it was run: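 Biotinylated human PCSK9 (20 nM) and His-tagged human LDLR EGFa domain (20 nM) incubated with Ulight-streptavidin and Eu-anti-His (5 nM each), 2 h at room temperature, in HEPES pH buffer with 5 mM CaCl2. TR-FRET read-out; IC50 from 4-parameter fit of dose-response.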

[2] = target: T1, PCSK9 (Homo sapiens, UniProt Q8NBP7); test: PCSK9 Alexa FRET Standard assay (displacement of AlexaFluor647-tagged cyclic peptide Reagent A); conditions: 0.5 nM PCSK9, 20 nM AF cyclic peptide Reagent A
T1 construct: biotin (biotinylated)
T1 sequence (Q8NBP7 153-692): as the sequence (Q8NBP7 153-692) above

[3] = target: T1, PCSK9; test: PCSK9 Alexa FRET Plus assay (displacement of AlexaFluor647-tagged cyclic peptide Reagent B); conditions: 0.5 nM PCSK9, 960 nM AF cyclic peptide Reagent B
Procedure: A solution containing 1 nM biotinylated PCSK9+2.5 nM Lance Streptavidin Europium (Strep-Eu) was made in 50 mM HEPES pH 7.4, 0.15 M NaCl, 5 mM CaCl2, 0.01% BSA, and 0.01% Surfactant P20. A separate solution containing 1920 nM of the AlexaFluor tagged cyclic peptide was made in the same buffer system. An Echo was used to transfer 0.075 ul of compound plus 0.675 ul of DMSO to each well of an assay plate followed by the addition of 15 ul of PCSK9+Stept-Eu and 15 ul of AF peptide. The final assay volume was 30.750 ul containing 0.5 nM PCSK9, 1.25 nM Strep-Eu, and 960 nM AF cyclic peptide. The reaction was incubated at room temperature for at least two hours prior to fluorescence measurements using an Envision Multilabel Reader. IC50 values were determined by fitting data to a sigmoidal dose-response curve using nonlinear regression. Ki was then calculated from the IC50 and the KD of AF cyclic peptide. Counts (B-counts) of the europium-labeled PCSK9 were followed to observe if compounds were adversely affecting PCSK9. A fall off of the B-counts likely indicated a false positive of inhibition. Data from this procedure was reported as “P=‘numerical value’ (nanomolar)”

IC50 [1]: 1 to 100 nM | IC50 [2]: 1 to 100 nM | IC50 [3]: 1 to 100 nM
SMILES: CC(C)[C@]1(C)NC(=O)[C@H](Cc2ccc(O)cc2)NC(=O)[C@H](C)NC(=O)C(C)(C)NC(=O)[C@H](Cc2c[nH]c3ncccc23)NC(=O)[C@H]([C@@H](C)O)NC(=O)[C@@H]2CCCN2C(=O)[C@H](Cc2ccc(O)cc2)NC(=O)[C@H](C(C)(C)C)NC(=O)CCSCc2cccc(c2)CSC[C@@H](C(N)=O)NC(=O)[C@H](COP(=O)(O)O)NC1=O [Compound 016] ([Mpa][Tle]YPT[Trp(7-aza)][Aib]AY[αMeV][pS]C-NH2; linker 1-12 via mXylylene)
